Format in all cases: cell-based
The target in experiment [1] is T1, α1(H102R)β2γ2 GABAA receptor (Homo sapiens, UniProt P14867+P18507+P47870, H129R).
T1 construct: expressed in transfected cells; host or cells: HEK293T
The experiment in a line: GABA concentration-response assay, whole-cell patch clamp, HEK293T. The note with it: GABA Hill fit. The source says: (§1) Human (Homo sapiens) GABAA subunits (α1‐6, β2, γ2s) were subcloned into pcDNA3.1+ vectors with a cytomegalovirus (CMV) promoter. The hβ2 and hα3 sequences were humanized rat (Rattus norvegicus) cDNA with amino acid substitutions made to match the human protein sequence. The α1‐3, α5, β2, and γ2s subunits were a generous gift from Neil L. Harrison (Columbia University Medical Center, NY). The α4 subunit was obtained from GenScript (Piscataway, NJ), and the α6 subunit was a generous gift from Robert L. McDonald (Vanderbilt University, TN). All point mutations (listed in Figure 1C) were introduced using the QuikChange Lightening site‐directed mutagenesis kit (Agilent Technologies, Santa Clara, CA) according to the manufacturer's instructions and were confirmed by sequencing (Eurofins MWG Operon, Louisville, KY).
(§2) Human embryonic kidney cells containing the SV40 T‐antigen (HEK293T) were acquired from American Type Culture Collection (ATCC®, Manassas, VA), catalogue number, CRL3216. HEK293T cells were maintained at 37°C and 5% CO2 in Eagle Minimum Essential Medium (MEM) supplemented with 5% fetal bovine serum (Atlanta Biologicals Inc., Flowery Branch, GA), 40 μM L‐glutamine, 100 U/mL penicillin and 0.1 mM streptomycin. Cells were passaged regularly when they reached 70% confluency using trypsin. Cells were not passaged more than 22 times. New cells were revived from frozen stocks at passage 2‐4. Cells used for in vitro electrophysiology experiments were grown on poly‐D‐lysine‐coated glass coverslips (No.2, VWR, Radnor, PA) and transfected with X‐tremeGENE (Roche Diagnostics, Indianapolis, IN) with the desired receptor subunit cDNAs at a 1:1:1 ratio to express αxβ2γ2s receptors (2 μg total cDNA) and with 0.5 μg green fluorescent protein (GFP) as an expression marker. The γ2s incorporation into receptors was tested with zinc inhibition assays regularly.24 Patch clamp experiments were performed on cells at 24‐72 hours post‐transfection. All experiments were performed at 22°C. Experiments consisted of at least five cells recorded per day from at least two transfections across 3‐4 days to control for cell health and transfection efficiency. At least three cells expressing wild‐type receptors were recorded on days that mutant receptors were tested to provide a time‐matched expression control. All reagents were purchased from Sigma‐Aldrich (St. Louis, MO) unless otherwise stated.
(§3) Extracellular solution contained 161 mM NaCl, 3 mM KCl, 1 mM MgCl2, 1.5 mM CaCl2, 10 mM HEPES, and 6 mM D‐glucose, adjusted to pH 7.4 with NaOH (320‐330 mOsm). […] The perfusion system was controlled by protocols written in pClamp 9 (Molecular Devices, LLC., Sunnyvale, CA). Whole‐cell currents were recorded at ‐60 mV, filtered at 100 Hz and sampled at 200 Hz with a MultiClamp 700B amplifier (Molecular Devices, LLC) and DigiData 1322A (Molecular Devices, LLC) digitizer. […] Cells were recorded with the midazolam protocol no more than two times to avoid desensitization and incomplete washout or irreversible modulation.
(§4) Recordings were analyzed using MATLAB (Math Works, Inc., Natick, MA). […] The maximum peak current, EC50 and Hill coefficient were estimated for assays from each cell. When Hill parameters are estimated from whole‐cell recordings, the changes in the parameters across receptor conditions can be ascribed to the following changes in receptor physiology. Changes in maximum current can be due to changes in the single‐channel conductance or the rate of desensitization. Changes in cell surface receptor expression can cause minor changes in maximum current, but are unlikely to occur in the time course of our experimental protocol. […] More often minor changes in the Hill coefficient are attributed to the altered homogeneity in the receptor population expressed by the HEK293T cell. For example, a shallower Hill coefficient could be caused by a shift in the population of receptors from mostly αβγ receptors to a combination of both αβ and αβγ receptors.
(In general: In patch-clamp work, channel activity is measured electrically.)

In a further experiment the target is T2, α1β2γ2 GABAA receptor (Homo sapiens, UniProt P14867+P18507+P47870).
T2 construct: expressed in transfected cells; host or cells: HEK293T
Described as above. The note with it: GABA Hill fit.
Excerpt: as §1, §2, §3, §4

For experiment [2], the target named is T3, α2(S205I)β2γ2 GABAA receptor (Homo sapiens, UniProt P18507+P47869+P47870, S233I).
T3 construct: expressed in transfected cells; host or cells: HEK293T
The experiment is described as above. The note with it: GABA Hill fit.
Excerpt: as §1, §2, §3, §4

The target of experiment [3] is T4, α2(T162P)β2γ2 GABAA receptor (Homo sapiens, UniProt P18507+P47869+P47870, T190P).
T4 construct: expressed in transfected cells; host or cells: HEK293T
The experiment is described as above. The following applies: GABA Hill fit.
Excerpt: as §1, §2, §3, §4

Experiment [4] has as its target T5, α4(I204S)β2γ2 GABAA receptor (Homo sapiens, UniProt P18507+P47870+P48169, I239S).
T5 construct: expressed in transfected cells; host or cells: HEK293T
Described as above. The note with it: GABA Hill fit.
Excerpt: as §1, §2, §3, §4

A further experiment addresses T6, α4β2γ2 GABAA receptor (Homo sapiens, UniProt P18507+P47870+P48169).
T6 construct: expressed in transfected cells; host or cells: HEK293T
The experiment is described as above. The following applies: GABA Hill fit.
Excerpt: as §1, §2, §3, §4

In experiment [5] the target is T7, α5(H105R)β2γ2 GABAA receptor (Homo sapiens, UniProt P18507+P31644+P47870, H136R).
T7 construct: expressed in transfected cells; host or cells: HEK293T
Described as above. The note with it: GABA Hill fit.
Excerpt: as §1, §2, §3, §4

For experiment [6], the target named is T8, α5(P166T)β2γ2 GABAA receptor (Homo sapiens, UniProt P18507+P31644+P47870, P197T).
T8 construct: expressed in transfected cells; host or cells: HEK293T
The description is as above. The following applies: GABA Hill fit.
Excerpt: as §1, §2, §3, §4

Experiment [7] has as its target T9, α5(S209I)β2γ2 GABAA receptor (Homo sapiens, UniProt P18507+P31644+P47870, S240I).
T9 construct: expressed in transfected cells; host or cells: HEK293T
The experiment is described as above. The note with it: GABA Hill fit.
Excerpt: as §1, §2, §3, §4

The target of another experiment is T10, α5β2γ2 GABAA receptor (Homo sapiens, UniProt P18507+P31644+P47870).
T10 construct: expressed in transfected cells; host or cells: HEK293T
The description is as above. The following applies: GABA Hill fit.
Excerpt: as §1, §2, §3, §4

Experiment [8] concerns the target T11, α6(N204I)β2γ2 GABAA receptor (Homo sapiens, UniProt P18507+P47870+Q16445, N223I).
T11 construct: expressed in transfected cells; host or cells: HEK293T
The experiment is described as above. The following applies: GABA Hill fit.
Excerpt: as §1, §2, §3, §4

The target of experiment [9] is T4, α2(T162P)β2γ2 GABAA receptor. The experiment in a line: Midazolam potentiation of EC10 GABA currents, whole-cell patch clamp, HEK293T.

T4 sequence (P47869 29-451 T190P): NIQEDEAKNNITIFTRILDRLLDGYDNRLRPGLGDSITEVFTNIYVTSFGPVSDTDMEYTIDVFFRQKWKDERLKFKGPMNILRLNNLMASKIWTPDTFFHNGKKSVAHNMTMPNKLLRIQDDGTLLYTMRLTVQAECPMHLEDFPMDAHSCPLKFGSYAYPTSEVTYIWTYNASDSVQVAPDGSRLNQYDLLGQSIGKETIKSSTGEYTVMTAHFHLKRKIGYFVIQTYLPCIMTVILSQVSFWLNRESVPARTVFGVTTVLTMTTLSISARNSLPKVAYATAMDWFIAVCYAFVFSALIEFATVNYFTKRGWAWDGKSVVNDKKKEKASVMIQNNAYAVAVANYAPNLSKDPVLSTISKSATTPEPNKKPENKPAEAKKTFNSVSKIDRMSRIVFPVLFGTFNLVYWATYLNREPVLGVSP
T4 sequence (P47870 25-512 limits assumed): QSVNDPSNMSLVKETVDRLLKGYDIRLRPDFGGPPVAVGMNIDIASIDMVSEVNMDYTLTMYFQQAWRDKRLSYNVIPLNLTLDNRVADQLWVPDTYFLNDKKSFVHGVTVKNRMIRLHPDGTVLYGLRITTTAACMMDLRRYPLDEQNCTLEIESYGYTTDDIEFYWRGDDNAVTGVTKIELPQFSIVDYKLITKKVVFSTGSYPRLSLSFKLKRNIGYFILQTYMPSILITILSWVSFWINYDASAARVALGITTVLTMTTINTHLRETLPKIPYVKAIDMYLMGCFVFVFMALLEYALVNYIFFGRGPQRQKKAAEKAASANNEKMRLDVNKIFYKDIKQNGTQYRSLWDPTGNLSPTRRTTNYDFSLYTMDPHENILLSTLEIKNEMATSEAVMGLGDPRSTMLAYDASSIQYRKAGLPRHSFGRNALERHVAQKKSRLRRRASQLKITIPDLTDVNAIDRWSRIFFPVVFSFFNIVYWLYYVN
T4 sequence (P18507 40-467 isoform P18507-1 limits assumed, stated change not applied): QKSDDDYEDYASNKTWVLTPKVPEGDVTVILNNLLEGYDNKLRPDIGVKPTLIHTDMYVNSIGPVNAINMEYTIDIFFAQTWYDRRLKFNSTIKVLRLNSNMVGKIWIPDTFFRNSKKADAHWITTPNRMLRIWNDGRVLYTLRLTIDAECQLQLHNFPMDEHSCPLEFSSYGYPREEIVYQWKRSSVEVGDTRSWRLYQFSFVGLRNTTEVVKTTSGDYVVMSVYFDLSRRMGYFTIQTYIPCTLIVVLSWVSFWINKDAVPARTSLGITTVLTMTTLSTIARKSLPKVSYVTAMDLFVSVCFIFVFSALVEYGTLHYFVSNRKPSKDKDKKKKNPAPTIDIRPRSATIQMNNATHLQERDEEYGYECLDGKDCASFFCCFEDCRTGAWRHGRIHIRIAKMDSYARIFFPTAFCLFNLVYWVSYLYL
T8 sequence (P31644 32-462 P197T): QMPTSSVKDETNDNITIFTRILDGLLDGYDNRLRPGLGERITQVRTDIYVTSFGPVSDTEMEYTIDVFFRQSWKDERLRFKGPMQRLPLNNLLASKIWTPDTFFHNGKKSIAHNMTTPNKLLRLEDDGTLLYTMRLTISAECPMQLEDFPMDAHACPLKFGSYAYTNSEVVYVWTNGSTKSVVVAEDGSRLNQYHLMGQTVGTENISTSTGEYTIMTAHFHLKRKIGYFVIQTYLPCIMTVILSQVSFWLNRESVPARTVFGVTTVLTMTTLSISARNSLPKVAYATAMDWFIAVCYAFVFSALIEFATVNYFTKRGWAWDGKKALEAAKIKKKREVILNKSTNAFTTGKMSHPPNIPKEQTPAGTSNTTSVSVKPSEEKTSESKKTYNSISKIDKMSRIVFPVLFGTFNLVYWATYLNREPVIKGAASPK
T8 sequence (P47870 26-474 isoform P47870-1 limits assumed, stated change not applied): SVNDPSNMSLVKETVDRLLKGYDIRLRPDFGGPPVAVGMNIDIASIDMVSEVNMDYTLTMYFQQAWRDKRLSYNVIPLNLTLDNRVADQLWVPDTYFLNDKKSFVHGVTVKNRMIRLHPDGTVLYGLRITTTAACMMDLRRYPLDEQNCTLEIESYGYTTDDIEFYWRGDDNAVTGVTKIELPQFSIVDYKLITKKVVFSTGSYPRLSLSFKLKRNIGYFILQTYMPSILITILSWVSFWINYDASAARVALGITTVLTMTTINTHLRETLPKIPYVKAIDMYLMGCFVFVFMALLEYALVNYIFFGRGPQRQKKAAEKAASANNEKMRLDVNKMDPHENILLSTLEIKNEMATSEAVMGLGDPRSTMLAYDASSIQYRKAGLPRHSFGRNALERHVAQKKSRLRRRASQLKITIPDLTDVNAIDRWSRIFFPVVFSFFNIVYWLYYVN
T8 sequence (P18507 40-467 isoform P18507-1 limits assumed, stated change not applied): as the sequence (P18507 40-467 isoform P18507-1 limits assumed, stated change not applied) above
T9 sequence (P31644 32-462 S240I): as the sequence (P31644 32-462 P197T) above, with T166P, S209I counted along it
T9 sequence (P47870 26-474 isoform P47870-1 limits assumed, stated change not applied): as the sequence (P47870 26-474 isoform P47870-1 limits assumed, stated change not applied) above
T9 sequence (P18507 40-467 isoform P18507-1 limits assumed, stated change not applied): as the sequence (P18507 40-467 isoform P18507-1 limits assumed, stated change not applied) above

`NCCCC(=O)O` [GABA, γ‐aminobutyric acid]: the Hill coefficient (as a rule, a measure of the steepness of the concentration-response curve) in experiment [1] is 1.255 ± 0.097; at α1β2γ2 GABAA receptor it was 1.400 ± 0.102; in [2], 1.452 ± 0.151; in experiment [3], 1.494 ± 0.101; in experiment [4] it was 1.180 ± 0.072; at α4β2γ2 GABAA receptor, 1.113 ± 0.063. For the same compound, the Hill coefficient was found to be 1.269 ± 0.084 in experiment [5], 1.420 ± 0.064 in experiment [6], 1.434 ± 0.059 in [7] and 1.547 ± 0.123 on α5β2γ2 GABAA receptor. In addition, the “Max Current (pA)” value is -3175 ± 444.3 pA in experiment [1]; -4218 ± 601.6 pA on α1β2γ2 GABAA receptor; -7835 pA in experiment [2]; -1765 ± 246.0 pA in [3]; -3424 ± 394.5 pA in experiment [4]; -3039 ± 347.3 pA at α4β2γ2 GABAA receptor. For the same compound, the “Max Current (pA)” value in experiment [5] is -6799 ± 919.2 pA; in experiment [6], -4543 ± 553.0 pA; in experiment [7], -6073 ± 742.0 pA; at α5β2γ2 GABAA receptor, -5115 ± 315.9 pA; in [8], -3549 ± 408.6 pA.
In the case of `Cc1ncc2n1-c1ccc(Cl)cc1C(c1ccccc1F)=NC2` [midazolam], the EC50 (commonly the midpoint of the concentration-response curve) in [9] is 42 ± 2.86 nM. For the same compound, the “Midazolam potentiation (%)” value in experiment [9] (10 nM MDZ + EC10 GABA, α2(T162P)) is given as 26.45 ± 4.06%; in experiment [9] (50 nM MDZ + EC10 GABA, α2(T162P)), 81.24 ± 9.43%; in experiment [9] (100 nM MDZ + EC10 GABA, α2(T162P)), 129.24 ± 14.94%; in [9] (500 nM MDZ + EC10 GABA, α2(T162P)) it was 156.21 ± 15.70%; in [9] (1000 nM MDZ + EC10 GABA, α2(T162P)), 150.36 ± 15.00%. The “Max potentiation (%)” value in experiment [9] (α2(T162P), Hill fit, midazolam 10-1000 nM + EC10 GABA) was 158.2 ± 15.8%. Besides, the Hill coefficient in [9] (α2(T162P), midazolam Hill fit) turned out to be 1.393 ± 0.073.

Values taken from paper PMC6234229, “The role of loops B and C in determining the potentiation of GABAA receptors by midazolam” (Pharmacology Research & Perspectives, 2018).
